Assay [1] relates to Panc-1 cells. Put plainly: Apoptosis assay (apoptosis kit, Annexin V-FITC flow cytometry and fluorescence microscopy). Format: cell-based, human. The note with it: for potency in apoptosis assay relative to crude crocetin: Panc-1, 48-72 hours, versus CC; for stimulating apoptosis: Panc-1 cells. As for the experimental part: (§1) FITC Annexin V and PI for flow cytometry provide a rapid and convenient assay for apoptosis. Treated and control cells were incubated with annexin V conjugate and propidium iodide (PI). Then cells were deposited onto slides for fluorescence microscopy. Cells were also used for flow cytometry analysis for live, apoptotic and dead cells using annexin V conjugated to green-fluorescent FITC dye and propidium iodide (PI). Propidium iodide stains necrotic cells with red fluorescence whereas green FITC dye stains apoptotic cells.
We treated Panc-1 pancreatic cancer cells with either purified crocetin or PC (fraction 5 of FIG. 2A) derived from alkaline treatment or crude commercial crocetin or CC (1 and 10 μM concentrations) for 48-72 hours. We have also used higher doses (25, 50 and 100 μM) in this experiment and it needs about 50-100 concentration of CC for inhibition of proliferation and increase of apoptosis at the level of 1 and 10 μm of PC. Treated cells were then labeled with Brdu and cells were assayed by Invitrogen Click-it Edu fluorimetric microplate proliferation kit and apoptosis assay kit.
On the technique in general: In flow cytometry, cells or beads pass a laser one at a time.

For assay [2], the system named is EGFR. As to the kind of experiment: Western blot of EGFR (phosphorylated and total) in Panc-1 cells. Format: cell-based, human. Further details: dose or concentration left out as unconfirmed. The following applies: Panc-1, compared with CC. As for the experimental part:
(§2) FIG. 4B illustrates effect of purified crocetin (PC) and crude crocetin (CC) on EGFR (epidermal growth factor receptor), Akt signaling and Bax/Bcl-2 on Panc-1 cells.
(§3) The immuno-Western blot analyses were the same as described earlier by Banerjee et al. (Reference 26). Briefly, MIA-PaCa-2 and BxPC-3 cells following treatment with or without crocetin and tumor samples were homogenized. Then, both cell and tumor lysates were spun at 18000 g for 1 hr at 4° C., and the supernatants were collected for immunodetection. Protein concentration was measured by using the Comassie blue reagent assay (Pierce, Rockford, Ill.). Equal amount of protein were resolved in 10% SDS-PAGE, transferred onto nitrocellulose membranes. Membranes were blocked with super block (Pierce, Rockford, Ill.) followed by incubation with appropriate primary antibodies at 4° C., overnight. The antigen-antibody reactions were detected with HRP-conjugated anti-rabbit or anti-mouse IgG for one hour in room temperature. Immunoreactions were visualized by the ECL ([…]) chemiluminescence reagent kit (Pierce, Rockford, Ill.) and relative expression of proteins were calculated by densitometric analyses using ID image Analysis Software version 3.6 (Eastman Kodak Company, Rochester, N.Y.).
(In general: In western blotting, separated proteins are transferred to a membrane and probed.)

The subject of assay [3] is DCLK-1. Put plainly: Western blot of DCLK1 expression. Format: cell-based, human. Further details: dose or concentration left out as unconfirmed. The following applies: Mia-PaCa2 cells. As for the experimental part:
FIG. 7D illustrates DCLK1 expression. Western blot analysis of DCLK1 after treatment of Mia-PaCa2 cells treated with 10 mM of CC and PC of #5, #3 and #1 HPLC fractions.
as §3

The test system of assay [4] is BxPc3 cells. As to the kind of experiment: Apoptosis assay in BxPC3 cells. The note with it: comparison to commercial crocetin. It is filed as cell-based, human. Here is the method:
as §1

The subject of assay [5] is Akt. As to the kind of experiment: Western blot of Akt signaling in Panc-1 cells. The note with it: 10 mM, listed as PC. It is filed as cell-based, human. As for the experimental part:
as §2, §3

Assay [6] has as its system Sonic Hedgehog signaling pathway. Put plainly: Western blot of Sonic Hedgehog signaling pathway proteins and target genes. It is filed as cell-based.
Excerpt: FIG. 7A illustrates western blots of onic Hedgehog signaling pathways proteins (sonic hedgehog, Gli-1, SUFU, Smoothened with beta-actin) expressions in treated lanes of I (CC), 2 (PC #5), 3 (PC #3) and 4 (PC #1).
FIG. 7B illustrates sonic hedgehog target genes: Patched, p21, cyclin D1 with actin treated by CC (Lane 1) and PC #5 (Lane 2), PC #3 (Lane 3) and PC #1 (Lane 4).
as §3

In assay [7] the test system is Panc-1 cells. As to the kind of experiment: Migration of Panc-1 cells in Bowden chamber. It is filed as cell-based, human. The note with it: 1 and 10 μM, 24 hours, compared with CC. Here is the method:
FIG. 4A illustrates effect of purified crocetin (PC) and crude crocetin (CC) on migration of Panc-1 cells. Panc-1 cells were incubated with PC and CC at concentrations of 1 and 10 μM in Bowden chamber for 24 hours and migration was studied.

Assay [8] deals with MIA-PaCa-2 xenograft tumor. As to the kind of experiment: Pancreatic cancer xenograft tumor growth in athymic nude mice. Format: in vivo. The note with it: 0.5 mg/kg, oral, 0 to 21 days, in comparison to control. Here is the method:
FIG. 5 illustrates pancreatic cancer xenograft tumor growth in athymic (nude) mice. […] The tumor size was measured (right) from the start date of crocetin treatment (0 day) to end date of crocetin treatment (21 days) in comparison to control (no treatment). Number of animals is 5 in the control and treated group;
MIA-PaCa-2 cells (2.5×10^6) were injected into the right hind leg of each mouse for the development of tumor. The mice were divided into two groups (6 mice per group) with a control group and crocetin treatment group. After development of palpable tumor, the tumor size was measured twice in a week. When tumors are well established (approximately 0.34 cm^3); treatment was started. The treatment group received crocetin at 0.5 mg/kg/day orally dissolved in 15 ml of peptamen for 12 hours during dark for 30 days and the dose is in agreement with other investigators (References 14, 17, 20 and 27). Tumor size was monitored twice weekly, and its volume calculated as […], where a=length and b=width. Control group received only peptamen. The mice were given solid food during light time following liquid peptamen diet at dark. All mice were sacrificed after 30 days following treatment and tumors were taken out and stored at −80° C. […]

Setting [9] is: in comparison to commercial crocetin.

For the compound `CC(C=CC=C(C)C(=O)O)=CC=CC=C(C)C=CC=C(C)C(=O)O` [crocetinic acid], the apoptosis result in assay [1] (1 µM, compared with CC) is “increase”. Also, the “potency in apoptosis assay relative to crude crocetin” value in assay [1] (listed as #5) is on record as 50 times; in assay [1] (listed as PC), 50 times; in assay [1] (listed as purified crocetin), “about 50 times”. Further, the stimulating apoptosis result in assay [1] is listed as “stimulated apoptosis”; in assay [1] (listed as #5), “promising effect”. Further, the “apoptosis by flow cytometry and fluorescence microscopy” value in assay [1] (lower doses) is “significant increase”. Further, the EGFR phosphorylation entry in assay [2] is reported as “significantly inhibited”. In addition, the DCLK-1 expression result was “significantly inhibited” in assay [3] and “reduction” in assay [3] (listed as 5). Further, the stimulation of apoptosis result in assay [4] was “stimulated apoptosis”. Further, in assay [5], the “Akt expression and phosphorylation” value is “significantly inhibited”. For the same compound, in assay [6] (Western blot), the Gli1 expression result is on record as “inhibited”. Moreover, the SUFU expression entry in assay [6] (Western blot) is recorded as “inhibited”. In addition, in assay [6] (Western blot), the smoothened expression result is “inhibited”. Further, the “cyclin D1 expression” value in assay [6] (Western blot, target protein) is given as “inhibited”. The patched expression entry in assay [6] (setting [9]) is given as “increased expression”; in assay [6] (in comparison to commercial crocetin, listed as 5) it was “increased”. In addition, the “sonic hedgehog (Shh) expression” value in assay [6] (setting [9]) is reported as “significantly inhibited”. Besides, the migration entry in assay [7] is reported as “significantly inhibited”. Also, the tumor growth entry in assay [8] is reported as “significantly inhibited”.

The values above are taken from patent publication US9889105B2, “In vivo method for treating, inhibiting, and/or prophylaxis of cancer, such as pancreatic cancer” (U.S. Department of Veterans Affairs, priority 2010, dated 2018).
